From publication PMC9030166, “Natural Phaeosphaeride A Derivatives Overcome Drug Resistance of Tumor Cells and Modulate Signaling Pathways” (Pharmaceuticals, 2022)

Tests used:
A431 cells = assay: IC50 on A431 cells (xCelligence RTCA cell index); type: cell-based; details: Homo sapiens, A-431
Description: A431 cells are characterized by a high inducibility of transcription factors STAT3 and STAT5. In turn, phaeosphaeride A and its derivatives are probably inhibitors of the STAT3 gene. Therefore, the A431 cell line was chosen as a model for searching for possible targets for the action of phaeosphaeride A derivatives. Table 7 presents IC50 data for phaeosphaeride A derivatives on A431 cells.
(§1) The effect of various concentrations of PPA derivatives on the cell culture was studied using xCelligence RTCA equipment (AceaBioscience, San Diego, CA, USA). The concentration closest to the IC50 (10 μM) was chosen as the experimental concentration. The selected concentration of phaeosphaeride A derivatives allows for the assessment of the early effect of compounds on cells and compares their effectiveness. In this experiment, the signaling pathways Akt (pSer473), p70S6K (pThr412), NFkB (p65-pSer536), and CREB (pSer133) were not activated (Table 8). The stress-activated signaling pathways ERK/MAP kinase 1/2 (pThr185/pTyr187), JNK (pThr183/pTyr185), and p38 (pThr180/pTyr182) were activated for these compounds.
To determine the integral cellular response using the xCelligence RTCA equipment (AceaBioscience, Santa Clara, CA, USA), 20 thousand cells were inoculated into a well of a specialized plate allowing the determination of the cell index in real time and cultured in complete growth medium. The next day after the seeding, the medium was replaced with an experimental one (compounds at concentrations of […]). The cell index was monitored for 3 days after the addition of the xenobiotic. The concentration closest to the IC50 (10 μM) was chosen as the experimental concentration.

[1] = tested on: ERK 1/2 (pThr185/pTyr187); assay: MILLIPLEX MAP 9-Plex, ERK 1/2 active form in A431 lysates; type: cell-based, human; details: 10 μM; for ERK ½ (pThr185/pTyr187) fluorescence intensity: A431 cell lysates, 1 h, M ± mx, control 839.7 ± 248.9; for activation of signaling pathway ERK/MAP kinase 1/2 (pThr185/pTyr187), in words: A431 cells
Description: We used the MILLIPLEX MAP Multi-Pathway Magnetic Bead 9-Plex-Cell Signaling Multiplex Assay, which allows the simultaneous detection of nine phosphorylated proteins that are markers of the main intracellular signaling pathways (phosphorylation site is indicated in parentheses), a universal transcription factor that controls the expression of immune response genes; apoptosis and cell cycle NFκB (pS536); cAMP-dependent transcription factor (CREB (pS133); mitogen-activated kinase p38 (pT180/pY182); stress-activated protein kinase JNK (pT183/pY185); ribosomal […]; transcription factors STAT3 (pS727) and STAT5A/B (pY694/699); protein kinase B (Akt) (pS473); and kinase regulated by extracellular signals ERK1/2 (pT185/pY187).
as §1
We used a MILLIPLEX MAP Multi-Pathway Magnetic Bead 9-Plex-Cell Signaling Multiplex Assay kit (Merck/Millipore), according to the manufacturer’s protocol. A431 cells were cultured in DMEM with 10% FBS in 24-well plates. Compounds were added to the subconfluent cells at a concentration of 10 μM in DMEM medium for 1 h. Each compound was added in 5 experimental repeats. Cell lysates were prepared with lysis buffer (Millipore) with protease inhibitors (Complete, Roche); the protein concentration in the lysates was determined by the Lowry method. In samples equalized in protein concentration, the active forms of kinase cascades were determined using a Bio-Plex 200 fluorescent analyzer (Bio-Rad).

K562/i-S9 = assay: MTT cytotoxicity, resistant K562/i-S9 cells (ABCB1 transfected); type: cell-based, human; details: for IC50: Homo sapiens, K562i/S9, resistant version, ABCB1 transfected, MTT, 48 h; for resistance of K562/i-S9 cells relative to K562: ratio of IC50 values, Table 4
Description: At the next stage, the cytotoxic activity of compounds 1, 2, and 9 (Scheme 2) was investigated on several pairs of cell lines that differ in the expression of P-gp and the method by which they were obtained. K562/i-S9 cells are the result of the ABCB1 transfection into K562 cells, which increases P-gp expression, but should not seriously affect other signaling pathways that could lead to drug resistance. K562/i-S9_Dox cells were obtained from K562/i-S9 by selection with low concentrations of doxorubicin to increase P-gp expression. Subline HBL-100/Dox is a derivative of HBL-100 cells, obtained by long-term selection with increasing concentrations of doxorubicin, which led not only to an increase in P-gp expression, but also to a change in the signaling pathways in this subline. Cells of the K562/i-S9_Dox subline express the highest level of P-gp: 94.7% ± 2.3 (p < 0.0001 relative to K562, and p = 0.04 relative to K562/i-S9). In cells of the K562/i-S9 line, the expression of P-gp is 80% ± 8.2 (p < 0.0001 relative to K562). At 0.7% ± 0.5, P-gp is practically not expressed in K562 cells (Figure 1).
Modifications of cell lines: K562/i-S9 is a clone obtained after transfection of K562 cells with the ABCB1 (MDR1) gene-encoding P-glycoprotein [36]. Cells HBL-100/Dox and K562/i-S9_Dox are cells obtained by long-term selection with increasing concentrations of doxorubicin (Sigma-Aldrich, St. Louis, MO, USA) from HBL-100 and K562/i-S9 cells, respectively. MCF-7, A594 cells, and primary cultures of soft tissue sarcomas were cultured in DMEM medium (PanEko, Russia), PC-3 and HCT-116 cells and all suspension cultures in RPMI1640 medium (PanEko, Russia) supplemented with 10% fetal bovine serum (GE Healthcare LifeSciences, USA), and gentamicin at a concentration of 40 μg/mL at 37 °C and 5% CO2.
Cells MCF-7, PC-3, A549, and HCT-116, and primary cultures of STSwere seeded in 96-well plates, 6 × 10^3 cells per well in 90 μL of culture medium. Suspension cultures were seeded at a concentration of 25 × 10^3 cells per well in 135 μL of medium. The test substances were dissolved in DMSO (Applichem, Council Bluffs, IA, USA) until a concentration of 1 × 10^−^2 M was obtained; for the subsequent dilution of the substances, a serum-free culture medium was used. The next day, for adhesive cultures, and on the same day, for suspension cultures, substances were added to the plates in a volume of 10 μL (adhesive cultures) and 15 μL (suspension cultures) per well at various concentrations; each concentration was added in 3–4 repetitions. The cells were cultured in the presence of substances for 48 h. Then, MTT reagent (PanEko, Moscow, Russia) was added to the wells at a concentration of 5 mg/mL in a volume of 20 μL per well. After 1.5–2 h, the medium with the reagent was removed, and the precipitate of the crystals of formazan was dissolved in 60 μL of DMSO. The optical density was determined using a Multiskan FC spectrophotometer (Thermo Scientific, Waltham, MA, USA) at a wavelength of 540 nm.
Based on the results of the experiments, a schedule was plotted of the dependence of the percentage of surviving cells (from control) on the concentration of the compound, and the sought concentration IC50 was calculated. The experiments were carried out in 3–4 times.

IC50 (A431 cells) [µM]	activation of signaling pathway ERK/MAP kinase 1/2 (pThr185/pTyr187), in words [1]	SMILES	ERK ½ (pThr185/pTyr187) fluorescence intensity [1]	IC50 (K562/i-S9) [µM]	resistance of K562/i-S9 cells relative to K562 (K562/i-S9)
> 50	only slightly activated	CCCCC[C@@H]1OC2=C(C(=O)N(OC)/C2=C\n2cnnc2)C(n2cnnc2)[C@@]1(C)O (stereo partly drawn) [Compound 10]	1864.9 ± 149.5 *↑ rel. units	–	–
1.9	maximum degree of activation	C=C1C2=C(C(=O)N1OC)[C@@H](N(C)C)[C@@](C)(O)[C@H](CCCCC)O2 [Compound 2, (2S,3R,4R)-4-(dimethylamino)-3-hydroxy-6-methoxy-3-methyl-7-methylene-2-pentyl-3,4,6,7-tetrahydropyrano[2,3-c]pyrrol-5(2H)-one]	5074.6 ± 770.1 *↑ rel. units	1.6 ± 0.5	–
> 50	only slightly activated	C=C1C2=C(C(=O)N1OC)[C@@H](N(CCCC)CCCC)[C@@](C)(O)[C@H](CCCCC)O2 [Compound 5, (2S,3R,4R)-4-(dibutylamino)-3-hydroxy-6-methoxy-3-methyl-7-methylene-2-pentyl-3,4,6,7-tetrahydropyrano[2,3-c]pyrrol-5(2H)-one]	1880.4 ± 81.7 *↑ rel. units	–	–
4.6	–	C=C1C2=C(C(=O)N1OC)[C@@H](N(CC)CCO)[C@@](C)(O)[C@H](CCCCC)O2 [Compound 9, (2S,3R,4R)-4-[ethyl(2-hydroxyethyl)amino]-3-hydroxy-6-methoxy-3-methyl-7-methylene-2-pentyl-3,4,6,7-tetrahydropyrano[2,3-c]pyrrol-5(2H)-one]	3276.9 ± 700.0 *↑ rel. units	2.8 ± 0.6	tendency towards increased sensitivity
3.7	–	C=C1C2=C(C(=O)N1OC)[C@@H](N1CCCC1)[C@@](C)(O)[C@H](CCCCC)O2 [Compound 1]	4650.1 ± 509.0 *↑ rel. units	2.4 ± 0.6	slightly greater sensitivity
